The text below walks through data of US12129265B2, “Therapeutic agents and uses thereof” (Ankh Life Sciences Limited, priority 2020, dated 2024).

Where two headings read alike, the source gives them in different places.

What all share (assay): CellTiter-Glo in vitro cell proliferation assay, Example 8
What all share (format): cell-based, Human
In general terms: ATP-based viability assays read luminescence as a measure of living cells.

The test system of one assay is A2780 cells. Conditions: A2780, Ovarian, read-out: Mean IC50. The method, then:
(§1) In this Example, in vitro cell proliferation assays were performed using: (1) Human Myeloma tumor cell lines; (2) Human Lymphoma tumor cell lines; (3) Solid Human tumor cell lines; and (4) Parental, Lenalidomide resistant and Bortezomib resistant Jeko-1 Mantle cell Lymphoma tumor cell lines. The compounds tested were three diharmaline compounds, namely the 518B562 (or simply 562), 560, and 561 compounds. In addition, a monoharmaline product designated as 518F014 was also tested. This monoharmaline product had the following structure:
(§2) Each proliferation assay was carried out as follows. The test cells were plated in growth media using a 384-well microtiter plate at 50 μL volume. The cells were incubated for 24 hours at 37° C. in a humidified incubator. After 24 hours of incubation, the test compounds were added to the test wells in DSMO solvent, at concentrations ranging from 0.0075-100 μM. Control wells received equal volumes of DSMO, without compound. Following drugging, the cells were incubated for 72 hours at 37° C. in a humidified incubator. After this exposure, 100 μL of a 1:1 mixture of sterile water and CellTiter-Glo® reagent (Promega) was added to each well. The plates were then incubated for 60 minutes at room temperature, followed by recording the luminescence value of each well using a luminometer as a measure of cell proliferation.

The test system of another assay is MIA PaCa-2 cells. Conditions: MIA PaCa-2, Pancreatic, read-out: Mean IC50. The method, then:
as §1, §2

The next assay deals with DOHH-2 cells. Conditions: DoHH-2, GCB-DLBCL, read-out: Mean IC50. The method, then: as §1, §2
A further assay deals with L363 cells. Conditions: L363, PCL/MM, read-out: Mean IC50. How it is done:
as §1, §2

A further assay deals with JIM1 cells. Conditions: JIM1, HMCL, read-out: Mean IC50. The method, then:
as §1, §2

The next assay concerns FaDu cells. Conditions: H&N - SC, read-out: Mean IC50. How it is done: as §1, §2
The test system of the next assay is KMM-1 cells. Conditions: KMM-1, HMCL-A, read-out: Mean IC50. The method, then: as §1, §2
A further assay concerns ASPC-1 cells. Conditions: ASPC-1, Pancreatic, read-out: Mean IC50. The method, then: as §1, §2
The test system of another assay is RPMI-8226 cells. Conditions: RPMI-8226, HMM. How it is done:
as §2
In this example, different cell lines were subjected to in vitro cell proliferation assays as described in Example 8. In particular, the cell lines are identified in the following Table 17, and the tissue types were: Pancreatic; Endometrial; Triple-Negative Breast Cancer (TNBC); Non-Small-Cell Lung Carcinoma (NSCLC); Ovarian; Renal Cell Carcinoma (RCC); Cervical-Squamous Cell; […] (H&N-Squamous Cell); Germinal Center B Cell-Like Novo Diffuse Large B-Cell Lymphoma (GCB-DLBCL); Activated B-Cell—Diffuse Large B Cell Lymphoma (ABC-DLBCL); Human Myeloma; Human Myeloma Cell Line Lymphocyte-Like; Human Myeloma Cell Line Lymphocyte-Like Myeloma Pleural Effusion Infiltration; Human Multiple Myeloma; Plasma Cell Leukemia/Multiple Myeloma Epstein-Barr Nuclear Antigen-Negative (EBNA-Negative) and to Express mRNA for Proto-Oncogene B-Cell Lymphoma 2 (BCL2); Multiple Myeloma from Peripheral Blood Type IgD Lmabda.

A further assay relates to A2780CP cells. Conditions: Ovarian, read-out: Mean IC50. The method, then:
as §1, §2

A further assay concerns SiHA cells. Conditions: Cervical - SC, read-out: Mean IC50. The method, then: as §1, §2
In the next assay the test system is AN3CA cells. Conditions: Endometrial, read-out: Mean IC50. The method, then:
as §1, §2

A further assay relates to OCI-LY3 cells. Conditions: OCI-LY3, ABC-DLBCL; read-out: Mean IC50. How it is done: as §1, §2
For the next assay, the system named is KMS-34 cells. Conditions: KMS-34, HMCL-B; read-out: Mean IC50. How it is done:
as §1, §2

Another assay deals with BxPC-3 cells. Conditions: BxPC-3, Pancreatic; read-out: Mean IC50. How it is done:
as §1, §2

The next assay relates to MDA-MB-468 cells. Conditions: MDA-MB-468, TNBC; read-out: Mean IC50. The method, then:
as §1, §2

The test system of a further assay is MOLP-8 cells. Conditions: MOLP-8, MM IgD; read-out: Mean IC50. How it is done: as §1, §2
The test system of another assay is MDA-MB-231 cells. Conditions: MDA-MB-231, TNBC; read-out: Mean IC50. How it is done:
as §1, §2

A further assay deals with H1650 (EGFR mut) cells. Conditions: NSCLC, read-out: Mean IC50. The method, then: as §1, §2
The next assay deals with HCC70 cells. Conditions: HCC70, TNBC; read-out: Mean IC50. The method, then:
as §1, §2

A further assay has as its system H1975 (EGFR mut) cells. Conditions: NSCLC, read-out: Mean IC50. The method, then: as §1, §2
Another assay has as its system HEC-1a cells. Conditions: Endometrial, read-out: Mean IC50. The method, then: as §1, §2
The subject of the next assay is A498 cells. Conditions: A498, RCC; read-out: Mean IC50. The method, then: as §1, §2

For orientation: IC50 means the concentration that inhibits the measured activity by half. In the case of `COc1cc(C2CC3(CC4(NCCc5sccc54)C2C2=NCCc4sccc42)NCCc2sccc23)ccc1O` (stereo not shown) [HRM05], the IC50 came out at 15.9 µM in the assay on A2780 cells (Homo sapiens); 12.2 µM with MIA PaCa-2 cells (Homo sapiens); 17.6 µM with DOHH-2 cells (Homo sapiens); 13.7 µM in the assay on L363 cells (Homo sapiens, L-363); 17.6 µM in the assay with JIM1 cells (Homo sapiens); 14 µM in the assay on FaDu cells (Homo sapiens). For the same molecule, the IC50 with KMM-1 cells (Homo sapiens) was found to be 12.5 µM; in the assay with ASPC-1 cells (Homo sapiens, ASPC1), 20.2 µM.
Regarding `COc1ccc2c3c([nH]c2c1)C(CC(CC1=NCCc2c1[nH]c1cc(OC)ccc21)c1ccc(OC(C)=O)c(OC)c1)=NCC3` [compound 6], the IC50 in the assay with RPMI-8226 cells is 10.3 µM; with A2780CP cells, 70.7 µM; with SiHA cells, 74.8 µM; in the assay on MIA PaCa-2 cells, 13.6 µM; with AN3CA cells it was 21.4 µM; with OCI-LY3 cells, 11.3 µM. Besides, the IC50 with KMS-34 cells is 11 µM; with DOHH-2 cells, 6.91 µM; with L363 cells, 16.3 µM; in the assay on JIM1 cells, 18 µM; in the assay with BxPC-3 cells, 15.8 µM; in the assay with MDA-MB-468 cells, 14.5 µM. Besides, the IC50 was 11.5 µM in the assay on MOLP-8 cells, 15.8 µM in the assay on FaDu cells, 16.9 µM with KMM-1 cells and 60.5 µM in the assay on MDA-MB-231 cells.
Consider `COc1ccc(C(CC2=NCCc3c2[nH]c2cc(OC)ccc32)CC2=NCCc3c2[nH]c2cc(OC)ccc32)c(O)c1` [compound 8], for which the IC50 with RPMI-8226 cells stood at 11.5 µM; in the assay with A2780CP cells, 49.8 µM; in the assay on H1650 (EGFR mut) cells it was 59.9 µM; in the assay on A2780 cells it was 18.7 µM; in the assay on MIA PaCa-2 cells it was 24.2 µM; in the assay on AN3CA cells, 20.2 µM. For the same molecule, the concentration for half-maximal inhibition (IC50) in the assay with OCI-LY3 cells was 11.3 µM; in the assay with HCC70 cells, 24.9 µM; in the assay with KMS-34 cells, 11.1 µM; in the assay with DOHH-2 cells, 6.37 µM; with L363 cells, 12.6 µM; with JIM1 cells, 14.3 µM. The IC50 in the assay on H1975 (EGFR mut) cells was 55.1 µM; with HEC-1a cells, 65.8 µM; in the assay with BxPC-3 cells, 21.9 µM; in the assay on MDA-MB-468 cells, 8.45 µM; in the assay on MOLP-8 cells, 10.1 µM; with A498 cells it was 78.7 µM. Moreover, the IC50 in the assay on FaDu cells was 16.1 µM; in the assay on KMM-1 cells it was 13.2 µM; in the assay on MDA-MB-231 cells, 24.4 µM; in the assay with ASPC-1 cells, 55.6 µM.
Take `COc1ccc2c3c([nH]c2c1)C(CC(CC1=NCCc2c1[nH]c1cc(OC)ccc21)c1cc(Cl)c(O)c(OC)c1)=NCC3` [compound 9]: the IC50 with RPMI-8226 cells was 11.5 µM; in the assay on A2780CP cells it was 60.3 µM; in the assay with H1650 (EGFR mut) cells, 79.7 µM; in the assay with A2780 cells, 35.7 µM; in the assay with MIA PaCa-2 cells, 52.6 µM; in the assay with AN3CA cells, 29.3 µM. Also, the IC50 in the assay with OCI-LY3 cells was determined as 11.9 µM; in the assay with HCC70 cells, 39 µM; in the assay with KMS-34 cells, 11.4 µM; with DOHH-2 cells, 9.76 µM; with L363 cells it was 19.7 µM; in the assay on JIM1 cells, 40.6 µM. The IC50 stood at 54.6 µM with H1975 (EGFR mut) cells; 95.6 µM with HEC-1a cells; 30 µM in the assay on BxPC-3 cells; 12.7 µM with MDA-MB-468 cells; 6.59 µM in the assay with MOLP-8 cells; 72.3 µM with FaDu cells. Further, the IC50 came out at 16 µM with KMM-1 cells, 45.8 µM in the assay with MDA-MB-231 cells and 70 µM with ASPC-1 cells.
`COc1ccc2c3c([nH]c2c1)C(CC(CC1=NCCc2c1[nH]c1cc(OC)ccc21)c1ccc(OC)c(Oc2ccccc2)c1)=NCC3` [compound 10]: the IC50 in the assay on RPMI-8226 cells was 3.98 µM; with A2780CP cells, 29.4 µM; in the assay with H1650 (EGFR mut) cells, 13.3 µM; in the assay with A2780 cells it was 65 µM; in the assay with MIA PaCa-2 cells, 11.9 µM; in the assay with AN3CA cells it was 31.7 µM. Moreover, the IC50 in the assay with OCI-LY3 cells stood at 7.57 µM; in the assay with HCC70 cells, 50.2 µM; with KMS-34 cells, 4.87 µM; with DOHH-2 cells, 2.78 µM; with L363 cells, 35.6 µM; with JIM1 cells it was 20.1 µM. The IC50 amounted to 64 µM in the assay on H1975 (EGFR mut) cells; 88.1 µM with HEC-1a cells; 27.6 µM in the assay with BxPC-3 cells; 11.4 µM in the assay with MDA-MB-468 cells; 8.28 µM with MOLP-8 cells; 79.2 µM in the assay with A498 cells. The IC50 with FaDu cells was found to be 49.7 µM; in the assay on KMM-1 cells it was 11.1 µM; in the assay with MDA-MB-231 cells it was 43.7 µM; in the assay on ASPC-1 cells, 23.8 µM.
As to `COc1ccc2c3c([nH]c2c1)C(CC(CC1=NCCc2c1[nH]c1cc(OC)ccc21)c1ccc(OC)c(O)c1Br)=NCC3` [compound 13], the IC50 in the assay on RPMI-8226 cells is 9.1 µM; in the assay on A2780CP cells, 23.4 µM; in the assay with H1650 (EGFR mut) cells, 21.2 µM; with A2780 cells it was 11.8 µM; in the assay on MIA PaCa-2 cells, 15.8 µM; with AN3CA cells, 7.82 µM. The IC50 in the assay on OCI-LY3 cells stood at 11.7 µM; in the assay with HCC70 cells, 28.5 µM; in the assay on KMS-34 cells, 11.1 µM; in the assay on DOHH-2 cells it was 6.52 µM; in the assay with L363 cells, 12.9 µM; in the assay with JIM1 cells, 11.5 µM. The IC50 in the assay with H1975 (EGFR mut) cells is 14 µM; in the assay with HEC-1a cells, 17.4 µM; in the assay on BxPC-3 cells, 16.6 µM; with MDA-MB-468 cells it was 12.6 µM; in the assay on MOLP-8 cells, 11 µM; with A498 cells it was 91.6 µM. Besides, the IC50 in the assay with FaDu cells came to 13.5 µM; with KMM-1 cells, 13.1 µM; in the assay with MDA-MB-231 cells it was 25.8 µM; in the assay on ASPC-1 cells, 82.5 µM.
Regarding `COc1ccc2c3c([nH]c2c1)C(CC(CC1=NCCc2c1[nH]c1cc(OC)ccc21)c1cccc(-c2ccccc2)c1)=NCC3` [compound 18], the half-inhibitory concentration (IC50) in the assay on RPMI-8226 cells worked out at 12.3 µM; in the assay on A2780CP cells, 31.2 µM; in the assay with H1650 (EGFR mut) cells, 45.4 µM; in the assay with A2780 cells, 26.3 µM; with MIA PaCa-2 cells, 32.5 µM; in the assay with AN3CA cells it was 28.8 µM. For the same molecule, the IC50 in the assay on OCI-LY3 cells is 25 µM; in the assay on HCC70 cells, 36.3 µM; in the assay with KMS-34 cells, 17.8 µM; with DOHH-2 cells it was 8.55 µM; with L363 cells, 34.8 µM; in the assay with JIM1 cells, 39.8 µM. Moreover, the IC50 stood at 59.1 µM in the assay with H1975 (EGFR mut) cells; 49.8 µM with HEC-1a cells; 36.2 µM in the assay with BxPC-3 cells; 48.7 µM in the assay on MDA-MB-468 cells; 12.2 µM with MOLP-8 cells; 93.4 µM in the assay with A498 cells. Also, the IC50 in the assay on FaDu cells amounted to 49.2 µM; with KMM-1 cells, 33.6 µM; with MDA-MB-231 cells it was 43.9 µM; in the assay on ASPC-1 cells, 43.8 µM.
